From patent US20220259235A1, “EGFR Inhibitor, Composition, and Preparation Method Therefor” (BETTA PHARMACEUTICALS CO., LTD, priority 2019, published 2022) come the findings set out here.

Series [1] can be described thus: Liver microsomal clearance test, dog. The conditions noted are these: Dog liver microsomes, 0.5 mg/mL, NADPH. Type of series: in vitro ADME. Here is the method:
(§1) Test 3 Liver Microsomal Clearance Test
(§2) 1. Prepare 0.5 mg/mL liver microsome diluent containing K-butter and MgCl2:
(§3) 2.1 Take 356 μL of the liver microsome diluent prepared above and add it to the preset wells of the incubation plate, the number of multiple wells n=1, mark it as the incubation plate.
(§4) 2.2 Take 4 μL of the positive control compound Verapamil (50 μM) and the working solution of the test compound (200 μM) into the above incubation plate containing 356 μL of liver microsome diluent, and mix well (The dilution solvent from the stock solution to the working solution is a mixed solvent of acetonitrile: methanol: water=1:1:2, and the final concentration of DMSO is ≤0.5%),
(§5) 2.3 Place the incubation plate in a 37° C. thermostatic oscillator (at shaking speed of 100 rpm) for pre-incubation with 10 min.
(§6) 2.4 Add 40 μL of 10 mM NADPH (add 40 μL of K-buffer to the wells without NADPH) to each reaction well to start the reaction and start timing.
(§7) 3. Sample collection and treatment:
(§8) 3.1 After adding NADPH to start the reaction, immediately take out 50 μL of the sample and add it to the precipitation plate pre-added with 400 μL of stop solution, and shake on an oscillator at 600 rpm for 5 min at room temperature as a 0 min sample.
(§9) 3.2 At the predetermined time points of 5 min, 15 min and 45 min, take out 50 μL of sample from the incubation plate and add it to the precipitation plate. The subsequent steps were the same as the treatment of 0 min sample. 3.3 After balancing, centrifuge above precipitation plate at 3200 rpm for 10 min at 4° C.
(§10) 3.4 Take 50 μL of the supernatant after centrifugation and add it to pre-added 20% acetonitrile water at appropriate proportion, shake on an oscillator at 600 rpm for 2 min at room temperature, mix well, and put it into the LC-MS/MS sampler for sample injection.
(§11) Analysis of Experimental Data
1. […]
Background: Liver microsomes are a subcellular fraction often used to study metabolism.

Series [2] can be described thus: Liver microsomal clearance test, rat. In kind it is in vitro ADME. The conditions noted are these: Rat liver microsomes, 0.5 mg/mL, NADPH. The procedure:
as §1, §2, §3, §4, §5, §6, §7, §8, §9, §10, §11
1. […]

Turning to `COc1cc(N2CCC(N3CCN(C)CC3)CC2)c(-c2cnn(C)c2)cc1Nc1ncc(Cl)c(Nc2ccc3nccnc3c2P(C)(C)=O)n1` [Compound 1, (6-((5-Chloro-2-((2-methoxy-5-(1-methyl-1hydro-pyrazol-4-yl)-4-(4-(4-methylpiperazine-1-yl)piperidin-1-yl)phenyl)amino)pyrimidin-4-yl)amino)quinoxalin-5-yl)dimethylphosphine oxide], the “Instrinsic clearance of liver microsomal protein, CLint” value amounted to 1 μL/min/mg proteins in series [1] and 4 μL/min/mg proteins in series [2].
